The record followed here is patent US11104703B2, “Binding compound and uses thereof” (priority 2016, dated 2021).

For one assay, the target named is Trypsin. The settings on record: for pKi / k3 / k3/Ki: Trypsin; for pKi: PBS pH 7.4, 37° C., Cbz-Gly-Gly-Arg-NHMec 50 μM; for pKi / k3/Ki: Mean (±SD); for k3: first-order rate constant, mean; for k3/Ki: overall second-order rate constant; for over all second-order rate constant: trypsin.
Another assay deals with ENaC. In kind it is cell-based.
For another assay, the system named is Chymotrypsin. Kind of assay: Steady state fluorogenic substrate assay, inactivation of chymotrypsin. The settings on record: for k3: mean; for second-order rate constant: chymotrypsin.
Another assay has as its target Plasmin (Homo sapiens, UniProt P00747). Kind of assay: Steady state fluorogenic substrate assay, inactivation of plasmin.
Assay [1] concerns primary CF Airway Epithelial Cells (AECs). Particulars: 50 μM, 24 hours, n=3, vehicle control 3.5.
Method: Mucociliary clearance was quantified by measuring the velocity of microbeads apically applied to differentiated primary CF Airway Epithelial Cells (AECs). Compounds (50 μM) were added to the apical surface of primary CF AECs for a period of 24 hours. Mucociliary flow was then determined by tracking and measuring the velocity of apically applied microbeads across the CF AEC surface.
The target of assay [2] is Human Airways Trypsin-like protease (HAT) (Homo sapiens, UniProt O60235). Particulars: for k3/Ki: Mean (±SD); for k3: mean.
Sequence of Human Airways Trypsin-like protease (HAT) (O60235 whole entry): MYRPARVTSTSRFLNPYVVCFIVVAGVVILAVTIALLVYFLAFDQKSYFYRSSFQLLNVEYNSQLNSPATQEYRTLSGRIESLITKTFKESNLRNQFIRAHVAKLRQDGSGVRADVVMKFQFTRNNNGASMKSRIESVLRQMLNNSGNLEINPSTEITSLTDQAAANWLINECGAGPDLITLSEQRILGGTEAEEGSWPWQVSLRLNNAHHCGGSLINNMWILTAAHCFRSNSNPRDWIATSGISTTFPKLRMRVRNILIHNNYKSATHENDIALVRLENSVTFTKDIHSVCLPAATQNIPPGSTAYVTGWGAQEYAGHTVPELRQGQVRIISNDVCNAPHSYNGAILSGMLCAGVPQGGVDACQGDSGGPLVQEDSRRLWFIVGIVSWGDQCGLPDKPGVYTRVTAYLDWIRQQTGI
Method: (§1) The ability of compounds of the invention to inhibit the activities of a range of commercially sourced proteases was assessed using steady state fluorogenic substrate assays. […] Assays were carried out in PBS, pH 7.4, at 37° C., in the presence of varying concentrations of inhibitor (10-50 μM) and a fixed concentration of substrate (50 μM). […] In this mechanism, the inhibitor I, binds the target protease to form an initial reversible complex EI, characterised by the inhibitor constant Ki. This is followed by the formation of an irreversible complex E-I from EI, characterised by the first-order rate constant k3.
In assay [3] the test system is primary human airway epithelial (HAE) cell cultures. The settings on record: 10 μM, Boc-QAR-AMC 50 μM, 37° C.
Method: (§2) Inhibition of endogenous protease activities in CF sputum sol, was conducted as for Example 8 but in the presence of Boc-Gln-Ala-Arg-AMC (50 μM) as substrate. The rate of hydrolysis of the substrate at 37° C. was monitored and residual activity determined.
Assay [4] concerns trypsin-like serine proteases in CF Sol. Particulars: 10 μM; pooled CF sputum sol diluted ×4; substrate Cbz-Gly-Gly-Arg-AMC; 37° C.
Method: Briefly, the spectrofluorimetic analysis was conducted on a sample of pooled supernatant recovered by centrifugation from expectorated cystic fibrosis sputum, which had been diluted ×4 with phosphate-buffered saline (sputum sol). […] The rate of hydrolysis of the substrate at 37° C. was monitored and inhibition as a % of an untreated control calculated.
The target in another assay is Matriptase (Homo sapiens, UniProt Q9Y5Y6). Particulars: for k3/Ki: Mean (±SD); for k3: mean.
Sequence of Matriptase (Q9Y5Y6 whole entry, species assumed): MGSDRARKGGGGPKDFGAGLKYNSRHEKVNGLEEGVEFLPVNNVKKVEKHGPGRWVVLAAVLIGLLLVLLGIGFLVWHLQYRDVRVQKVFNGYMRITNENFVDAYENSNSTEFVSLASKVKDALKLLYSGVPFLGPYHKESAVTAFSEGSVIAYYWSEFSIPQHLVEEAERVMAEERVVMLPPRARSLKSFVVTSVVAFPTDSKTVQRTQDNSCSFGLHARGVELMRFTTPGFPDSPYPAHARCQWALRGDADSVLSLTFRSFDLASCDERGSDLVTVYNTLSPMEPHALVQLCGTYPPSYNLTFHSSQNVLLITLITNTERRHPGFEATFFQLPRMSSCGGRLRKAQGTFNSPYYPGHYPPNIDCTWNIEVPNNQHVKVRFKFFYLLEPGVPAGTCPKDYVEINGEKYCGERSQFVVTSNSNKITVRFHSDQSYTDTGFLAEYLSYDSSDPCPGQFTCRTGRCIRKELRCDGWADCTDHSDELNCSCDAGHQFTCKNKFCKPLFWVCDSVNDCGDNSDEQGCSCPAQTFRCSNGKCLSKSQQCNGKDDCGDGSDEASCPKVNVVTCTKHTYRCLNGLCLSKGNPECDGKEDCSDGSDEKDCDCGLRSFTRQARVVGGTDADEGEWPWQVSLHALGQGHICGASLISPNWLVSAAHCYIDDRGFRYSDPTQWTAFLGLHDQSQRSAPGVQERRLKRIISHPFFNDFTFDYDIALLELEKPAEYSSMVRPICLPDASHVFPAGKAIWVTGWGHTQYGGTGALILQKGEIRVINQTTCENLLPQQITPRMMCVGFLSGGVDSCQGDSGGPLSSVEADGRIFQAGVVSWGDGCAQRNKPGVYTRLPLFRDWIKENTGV
Assay [5] relates to endogenous protease activities in CF sputum sol. The settings on record: CF sputum sol from 8 individual CF patients; Boc-Gln-Ala-Arg-AMC 50 μM.
Method: as §2
The target of another assay is Thrombin (Homo sapiens, UniProt P00734).

pKi: −log10 of the molar value. Numbered stars: 1 amine (or outer) side, 2 acyl side, 3 side chain; on linkers, the order of the positions; unused ones are H or OH. Square brackets hold non-standard residues; d marks the D form. Side chains are listed from the residue outwards. Peptide text beside a SMILES is read from it. * marks the point of attachment. Biotin = O=C1N[C@H]2[C@H](CS[C@H]2CCCCC(=O)*)N1; Gly(N-(CH2)3-guanidino) = N=C(N)NCCCNCC(=O)O; Glutaryl = O=C(CCCC(=O)[*:2])[*:1]; X2 = O=C(Oc1c(F)c(F)c(F)c(F)c1F)*; X1 = O=C1CCC(=O)N1OC(=O)*; X3 = C#Cc1cccc(N*)c1; Ahx = NCCCCCC(=O)O

Sequence of Plasmin (P00747 97-810, species assumed): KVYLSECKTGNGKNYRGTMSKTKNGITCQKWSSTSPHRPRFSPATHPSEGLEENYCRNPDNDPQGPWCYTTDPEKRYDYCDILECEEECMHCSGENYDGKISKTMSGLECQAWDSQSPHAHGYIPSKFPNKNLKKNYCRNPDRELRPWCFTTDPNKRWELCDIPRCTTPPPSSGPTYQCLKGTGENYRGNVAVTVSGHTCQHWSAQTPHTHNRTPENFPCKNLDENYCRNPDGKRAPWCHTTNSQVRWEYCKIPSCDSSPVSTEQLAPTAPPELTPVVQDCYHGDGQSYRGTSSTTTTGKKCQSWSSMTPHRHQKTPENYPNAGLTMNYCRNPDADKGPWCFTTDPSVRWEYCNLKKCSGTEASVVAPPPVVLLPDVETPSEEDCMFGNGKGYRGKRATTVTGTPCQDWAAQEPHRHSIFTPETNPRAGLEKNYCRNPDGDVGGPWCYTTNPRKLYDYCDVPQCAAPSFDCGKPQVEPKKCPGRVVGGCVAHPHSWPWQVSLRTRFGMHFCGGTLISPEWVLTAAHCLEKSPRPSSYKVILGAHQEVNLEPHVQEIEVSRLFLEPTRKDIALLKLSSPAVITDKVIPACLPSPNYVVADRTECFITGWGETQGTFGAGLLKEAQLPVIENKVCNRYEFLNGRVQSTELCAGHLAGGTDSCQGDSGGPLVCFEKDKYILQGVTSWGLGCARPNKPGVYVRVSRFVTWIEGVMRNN
Method for Chymotrypsin: as §1
Method for ENaC: All determinations were conducted using a TECC24 semiautomated system. Unlike the traditional Ussing chamber assays, where the short circuit current (ISC) is measured as an index of CFTR correction, the TECC-24 assay measures the equivalent current (IEQ).
Method for Matriptase: as §1
Method for Plasmin: as §1
Method for Thrombin: as §1

Consider `C#Cc1cccc(NC(=O)CCCC(=O)NCCCC[C@H](NC(=O)CCCCCNC(=O)CNC(=O)CNC(=O)CN(CCCNC(=N)N)C(=O)ON2C(=O)CCC2=O)C(=O)O)c1` [NAP884, N-6-(1-acetylene-3-amino-phenyl)-di-carboxy-pentane-Lys-NH-Ahx-Gly-Gly-N-(n-guanidino-propyl)-glycine succinimidyl carbamate] (X1-[Gly(N-(CH2)3-guanidino)]GG[Ahx]K([Glutaryl-X3])-OH), for which, at Trypsin, the negative logarithm of the Ki (pKi) (in general, the Ki on a negative log10 scale, so that one unit is a factor of ten) was 6.38; the k3 turned out to be 0.528 min⁻¹; the k3/Ki is recorded as 1.34 (±0.351) × 10^6 M^−1 min^−1.

For `N=C(N)NCCCN(CC(=O)NCC(=O)NCC(=O)NCCCCCC(=O)N[C@@H](CCCCNC(=O)CCCC[C@@H]1SC[C@@H]2NC(=O)N[C@@H]21)C(=O)O)C(=O)ON1C(=O)CCC1=O` [NAP897, HO-Lys(Biotin)-Ahx-Gly-Gly-N-(n-guanidino-propyl)-glycine succinimidyl carbamate] (X1-[Gly(N-(CH2)3-guanidino)]GG[Ahx]K(Biotin)-OH), on Trypsin, the negative logarithm of the Ki (pKi) is 6.18, the k3 came to 0.7 min⁻¹ and the k3/Ki is 1.3 (±0.4) × 10^6 M^−1 min^−1.

`N=C(N)NCCCN(CC(=O)NCC(=O)NCC(=O)NCCCCCC(=O)N[C@@H](CCCCNC(=O)CCCC[C@@H]1SC[C@@H]2NC(=O)N[C@@H]21)C(=O)O)C(=O)Oc1c(F)c(F)c(F)c(F)c1F` [NAP966, HO-Lys(biotin)-Ahx-Gly-Gly-N-(n-guanidino-propyl)-glycine pentafluorophenyl carbamate] (X2-[Gly(N-(CH2)3-guanidino)]GG[Ahx]K(Biotin)-OH): at Trypsin, the pKi is 5.68, the k3 came out at 0.4 min⁻¹ and the k3/Ki is on record as 1.9 (±0.25) × 10^5 M^−1 min^−1.

With `N=C(N)NC(=O)c1nc(Cl)c(N)nc1N` [amiloride, reference compound], in the assay on ENaC (10 μM, added to terminate the experiment, ENaC-expressing FRT cells), the “inhibition of the observable current” value was over 95%.

With “Biotin-PEG-NH-Gly-Gly-N-(benzyl)-glycine succinimidyl carbamate [NFP849]”, the k3/Ki in the assay on Chymotrypsin (Chymotrypsin, Mean (±SD)) was 1.3 (±0.4) × 10^6 M^−1 min^−1. Besides, the negative-log Ki (pKi) on Chymotrypsin (Chymotrypsin, Suc-Ala-Ala-Pro-Phe-NHMec 50 μM, Mean (±SD)) is 6.05. The compound further registered a k3 in the assay with Chymotrypsin (Chymotrypsin) of 0.8 min⁻¹. Also, in the assay with Chymotrypsin, the second-order rate constant is recorded as 1.28 (±0.442)×10^6 M^−1·min^−1.

“Biotin-PEG-NH-Gly-Gly-N-(n-amino-butyl)-glycine succinimidyl carbamate [NKP830]” gave a negative-log Ki (pKi) at Plasmin (Boc-Val-Leu-Lys-NHMec 50 μM, Mean (±SD)) of 5.14. In addition, the k3/Ki at Plasmin (Mean (±SD)) is 6.2 (±0.9) × 10^4 M^−1 min^−1. Also, the k3 on Plasmin (mean) was 0.4 min⁻¹. Besides, at Trypsin, the pKi is 6.66, the k3 is 0.5 min⁻¹, the k3/Ki is listed as 2.7 (±0.5) × 10^6 M^−1 min^−1 and the “over all second-order rate constant” value is 2.74 (±0.547)×10^6 M^−1·min^−1.

For the compound “Biotin-PEG-NH-Gly-Gly-N-(n-guanidino-propyl)-glycine succinimidyl carbamate [NAP858]”, in the assay on ENaC (50 μM, primary CF cultures, over a 90 minute period), the “ENaC activity (reduction of current)” value came out at 36 μA/cm2. Besides, the “mucociliary clearance (velocity of apically applied microbeads)” value in assay [1] amounted to 6.83 μm/s. Besides, in assay [2], the k3/Ki was 1.50 (±1.76) × 10^6 M^−1 min^−1 and the k3 was determined as 0.464 min⁻¹. Also, the extracellular tryptic activity entry in assay [3] is listed as “reduced extracellular tryptic activity to a similar degree as that of QUB-TL1”. Further, at Trypsin, the pKi is 6.31, the k3 was 0.299 min⁻¹, the k3/Ki is reported as 1.95 (±2.62) × 10^6 M^−1 min^−1 and the “over all second-order rate constant” value is recorded as 2.60 (±0.884)×10^6 M^−1·min^−1. Further, in [4], the “inhibition of hydrolytic action of trypsin-like serine proteases in CF Sol” value is recorded as “complete inhibition”. For the same compound, at Matriptase, the k3/Ki is on record as 1.30 (±0.943) × 10^6 M^−1 min^−1 and the k3 was determined as 0.314 min⁻¹. The “inhibition of endogenous protease activity, residual activity compared with QUB-TL1” value in assay [5] is “superior to QUB-TL1”.

On to “Biotin-PEG-NH—(N-benzyl-glycyl)-(D)-phenylalanyl-N-(n-guanidino-propyl)-glycine succinimidyl carbamate [NAT988]”, for which, at Thrombin (Mean (±SD)), the k3/Ki is 4.7 (± 1.1) × 10^5 M^−1 min^−1. For the same compound, the k3 on Thrombin (mean) stood at 0.4 min⁻¹.

In the assay on Chymotrypsin (Chymotrypsin), “Biotin-PEG-NH—(N-methyl glycyl)-(N-methyl glycyl)-N-(benzyl)-glycine succinimidyl carbamate [CG877]” returned a k3 of 0.7 min⁻¹. In addition, in the assay on Chymotrypsin, the second-order rate constant was 2.46 (±0.214)×10^5 M^−1·min^−1.

“Biotin-PEG-NH—N-(n-guanidino-propyl)-glycine-Gln-Sar-N-(n-guanidino-propyl)-glycine succinimidyl carbamate [NAP1099]”: the k3/Ki in [2] is recorded as 3.71 (±2.89) × 10^6 M^−1 min^−1; in the assay on Trypsin, 3.80 (±3.16) × 10^6 M^−1 min^−1; on Matriptase, 8.52 (±9.05) × 10^6 M^−1 min^−1. The k3 in assay [2] was 0.474 min⁻¹; in the assay on Trypsin, 0.354 min⁻¹; on Matriptase, 0.302 min⁻¹. The extracellular tryptic activity entry in [3] is given as “reduced extracellular tryptic activity to a similar degree as that of QUB-TL1”. In addition, in [5], the “inhibition of endogenous protease activity, residual activity compared with QUB-TL1” value is “superior to QUB-TL1”.
